Results as given in patent publication US7351709B2, “Estrogen receptor ligands” (Wyeth, priority 2004, dated 2008).

How the values were obtained:
ERα [1] = target: T1, ERα (Homo sapiens, UniProt P03372); test: IL-6 assay: inhibition of IL-1β induced IL-6 expression in ERα infected HAECT-1 cells; assay type: cell-based; settings: for IC50: Ad5-wt-ER infected HAECT-1 cells, IL-1β stimulated, IL-6 by ELISA; for ER/IL-6 % E2: efficacy relative to the maximal inhibition observed with E2
T1 construct: expressed in transfected cells; host or cells: HAECT-1 cells infected with Ad5-wt-ER adenovirus
T1 sequence (P03372 1-595): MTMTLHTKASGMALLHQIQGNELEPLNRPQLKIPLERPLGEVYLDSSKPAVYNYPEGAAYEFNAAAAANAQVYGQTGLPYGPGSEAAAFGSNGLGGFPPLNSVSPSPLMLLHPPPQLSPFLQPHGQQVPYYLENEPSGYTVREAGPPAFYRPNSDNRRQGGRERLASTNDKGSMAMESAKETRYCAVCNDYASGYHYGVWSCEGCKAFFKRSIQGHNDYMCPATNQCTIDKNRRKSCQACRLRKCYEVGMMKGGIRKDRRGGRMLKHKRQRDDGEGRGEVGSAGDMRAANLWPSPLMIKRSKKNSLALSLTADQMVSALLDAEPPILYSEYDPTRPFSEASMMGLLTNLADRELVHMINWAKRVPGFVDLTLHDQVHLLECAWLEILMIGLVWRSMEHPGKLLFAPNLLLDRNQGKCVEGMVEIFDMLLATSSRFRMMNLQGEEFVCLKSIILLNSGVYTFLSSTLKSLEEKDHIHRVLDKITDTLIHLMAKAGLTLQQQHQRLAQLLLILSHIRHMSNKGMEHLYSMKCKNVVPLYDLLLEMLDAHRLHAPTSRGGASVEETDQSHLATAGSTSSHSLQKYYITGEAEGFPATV
Procedure: (§1) ERα infected HAECT-1 cells or control cells were thawed, diluted 42× in warm EBM-BSA, plated into 96-well plates at 0.1 ml/well and incubated for 4 h at 34° C. Test compounds were added to the cells as 2× stocks in EBM-BSA containing 2 ng/ml IL-1β (R&D Systems) and plates were returned to the incubator (34° C.). After 15-20 h, 100 μl aliquots of media were removed from the cells and assayed for IL-6 content using a BioSource human IL-6 ELISA Kit. Cells were subsequently washed with 300 μl of Dulbecco's phosphate buffered saline and lysed in 50 μl of Cell Culture Lysis Reagent (Promega). Creatine kinase was determined from the rate of increase in A340 following addition of 100 μl of CK assay reagent (Sigma, cat. No 47-10) to the remainder of the cell lysate.
(§2) For IC50 and EC50 calculations, mean IL-6 or CK values versus log10 of the compound concentration were fitted to a four parameter logistic equation. The IC50/EC50 value, ‘Hill slope’, upper and lower limits of the curve were iteratively estimated.

ERα [2] = target: T1, ERα; test: Creatine kinase (CK) assay in ERα infected HAECT-1 cells; assay type: cell-based; settings: for EC50: Ad5-wt-ER infected HAECT-1 cells, creatine kinase in cell lysate; for ER/CK % E2: efficacy relative to the maximal stimulation observed with E2
Procedure: as §1, §2

| IC50 (ERα [1]) [nM] | ER/IL-6 % E2 (ERα [1]) [% E2] | EC50 (ERα [2]) [nM] | ER/CK % E2 (ERα [2]) [% E2] | SMILES |
| --- | --- | --- | --- | --- |
| 72 | 104 | 103 | 29 | CC[C@@H]1C(=O)N(CC)c2cc(F)ccc2N1C(=O)c1ccc(O)cc1 [Example 3, (3R)-1,3-Diethyl-7-fluoro-4-(4-hydroxybenzoyl)-3,4-dihydroquinoxalin-2(1H)-one] |
| 139 | 99 |  |  | CC[C@@H]1C(=O)N(CC)c2ccc(F)cc2N1C(=O)c1ccc(O)cc1 [Example 8, (3R)-1,3-Diethyl-6-fluoro-4-(4-hydroxybenzoyl)-3,4-dihydroquinoxalin-2(1H)-one] |
| 738 | 63 | 43 | 9 | CC[C@H]1C(=O)N(CC)c2cc(F)ccc2N1S(=O)(=O)c1ccc(O)cc1 [Example 30, (3S)-1,3-Diethyl-7-fluoro-4-[(4-hydroxyphenyl)sulfonyl]-3,4-dihydroquinoxalin-2(1H)-one] |
| 413 | 92 |  |  | CC[C@H]1C(=O)N(CC)c2ccc(Br)cc2N1S(=O)(=O)c1ccc(O)cc1 [Example 33, (3S)-6-bromo-1,3-diethyl-4-[(4-hydroxyphenyl)sulfonyl]-3,4-dihydroquinoxalin-2(1H)-one] |
| 447 | 63 |  |  | CC[C@H]1C(=O)N(CC)c2ccc(C)cc2N1S(=O)(=O)c1ccc(O)cc1 [Example 27, (3S)-1,3-diethyl-4-[(4-hydroxyphenyl)sulfonyl]-6-methyl-3,4-dihydroquinoxalin-2(1H)-one] |
| 222 | 96 |  |  | CCCN1C(=O)[C@@H](CC)N(C(=O)c2ccc(O)cc2)c2cc(F)ccc21 [Example 9, (3R)-3-Ethyl-6-fluoro-4-(4-hydroxybenzoyl)-1-propyl-3,4-dihydroquinoxalin-2(1H)-one] |
| 313 | 106 |  |  | CCCCN1C(=O)[C@H](CC)N(S(=O)(=O)c2ccc(O)cc2)c2cc(F)ccc21 [Example 23, (3S)-1-Butyl-3-ethyl-6-fluoro-4-[(4-hydroxyphenyl)sulfonyl]-3,4-dihydroquinoxalin-2(1H)-one] |
| 57 | 95 |  |  | C=CCN1C(=O)[C@@H](CC)N(C(=O)c2ccc(O)cc2)c2cc(F)ccc21 [Example 10, (3R)-1-Allyl-3-ethyl-6-fluoro-4-(4-hydroxybenzoyl)-3,4-dihydroquinoxalin-2(1H)-one] |
| 102 | 84 |  |  | CC[C@@H]1C(=O)N(C)c2ccc(F)cc2N1C(=O)c1ccc(O)cc1 [Example 15, (3R)-3-Ethyl-6-fluoro-4-(4-hydroxybenzoyl)-1-methyl-3,4-dihydroquinoxalin-2(1H)-one] |
| 105 | 91 |  |  | CC[C@@H]1C(=O)N(C(C)C)c2ccc(F)cc2N1C(=O)c1ccc(O)cc1 [Example 11, (3R)-3-Ethyl-6-fluoro-4-(4-hydroxybenzoyl)-1-isopropyl-3,4-dihydroquinoxalin-2(1H)-one] |
| 258 | 128 |  |  | CC[C@H]1C(=O)N(C)c2ccc(Br)cc2N1S(=O)(=O)c1ccc(O)cc1 [Example 34, (3S)-6-bromo-3-ethyl-4-[(4-hydroxyphenyl)sulfonyl]-1-methyl-3,4-dihydroquinoxalin-2(1H)-one] |
| 52 | 95 |  |  | CCCCN1C(=O)[C@@H](CC)N(C(=O)c2ccc(O)cc2)c2cc(F)ccc21 [Example 12, (3R)-1-Butyl-3-ethyl-6-fluoro-4-(4-hydroxybenzoyl)-3,4-dihydroquinoxalin-2(1H)-one] |
| 296 | 92 |  |  | CC[C@H]1C(=O)N(C)c2ccc(C)cc2N1S(=O)(=O)c1ccc(O)cc1 [Example 28, (3S)-3-Ethyl-4-[(4-hydroxyphenyl)sulfonyl]-1,6-dimethyl-3,4-dihydroquinoxalin-2(1H)-one] |
| 262 | 87 |  |  | CC[C@@H]1C(=O)N(CC(C)C)c2ccc(F)cc2N1C(=O)c1ccc(O)cc1 [Example 14, (3R)-3-Ethyl-6-fluoro-4-(4-hydroxybenzoyl)-1-isobutyl-3,4-dihydroquinoxalin-2(1H)-one] |
| 534 | 40 |  |  | CC[C@H]1C(=O)N(Cc2ccccc2)c2ccc(F)cc2N1S(=O)(=O)c1ccc(O)cc1 [Example 24, (3S)-1-benzyl-3-ethyl-6-fluoro-4-[(4-hydroxyphenyl)sulfonyl]-3,4-dihydroquinoxalin-2(1H)-one] |
| 204 | 83 |  |  | CC[C@@H]1C(=O)N(CC(F)(F)F)c2ccc(F)cc2N1C(=O)c1ccc(O)cc1 [Example 16, (3R)-3-Ethyl-6-fluoro-4-(4-hydroxybenzoyl)-1-(2,2,2-trifluoroethyl)-3,4-dihydroquinoxalin-2(1H)-one] |
| 285 | 44 |  |  | CC[C@H]1C(=O)N(CC)c2ccc(F)cc2N1C(=O)c1ccc(O)cc1 [Example 6, (3S)-1,3-Diethyl-6-fluoro-4-(4-hydroxybenzoyl)-3,4-dihydroquinoxalin-2(1H)-one] |
| 181 | 56 |  |  | CCN1C(=O)[C@H](C)N(S(=O)(=O)c2ccc(O)cc2)c2cc(F)ccc21 [Example 21, (3S)-1-Ethyl-6-fluoro-4-[(4-hydroxyphenyl)sulfonyl]-3-methyl-3,4-dihydroquinoxalin-2(1H)-one] |
| 445 | 96 |  |  | CC[C@@H]1C(=O)N(C2CCCC2)c2ccc(F)cc2N1C(=O)c1ccc(O)cc1 [Example 17, (3R)-1-Cyclopentyl-3-ethyl-6-fluoro-4-(4-hydroxybenzoyl)-3,4-dihydroquinoxalin-2(1H)-one] |
| 303 | 44 |  |  | CC[C@H]1C(=O)N(C)c2ccc(F)cc2N1C(=O)c1ccc(O)cc1 [Example 7, (3S)-3-Ethyl-6-fluoro-4-(4-hydroxybenzoyl)-1-methyl-3,4-dihydroquinoxalin-2(1H)-one] |
| 429 | 90 |  |  | CC[C@H]1C(=O)N(C)c2cc(Br)ccc2N1S(=O)(=O)c1ccc(O)cc1 [Example 32, (3S)-7-bromo-3-ethyl-4-[(4-hydroxyphenyl)sulfonyl]-1-methyl-3,4-dihydroquinoxalin-2(1H)-one] |
| 89 | 102 |  |  | CCCCCN1C(=O)[C@@H](CC)N(C(=O)c2ccc(O)cc2)c2cc(F)ccc21 [Example 13, (3R)-3-Ethyl-6-fluoro-4-(4-hydroxybenzoyl)-1-pentyl-3,4-dihydroquinoxalin-2(1H)-one] |
| 5600 | 55 |  |  | C=CCN1C(=O)[C@H](CC)N(S(=O)(=O)c2ccc(O)cc2)c2cc(F)ccc21 [Example 22, (3S)-1-Allyl-3-ethyl-6-fluoro-4-[(4-hydroxyphenyl)sulfonyl]-3,4-dihydroquinoxalin-2(1H)-one] |
| 157 | 79 |  |  | CCCN1C(=O)[C@H](CC)N(S(=O)(=O)c2ccc(O)cc2)c2cc(F)ccc21 [Example 20, (3S)-3-Ethyl-6-fluoro-4-[(4-hydroxyphenyl)sulfonyl]-1-propyl-3,4-dihydroquinoxalin-2(1H)-one] |
| 1570 | 71 |  |  | CC[C@H]1C(=O)N(CC)c2cc(Br)ccc2N1S(=O)(=O)c1ccc(O)cc1 [Example 31, (3S)-7-Bromo-1,3-diethyl-4-[(4-hydroxyphenyl)sulfonyl]-3,4-dihydroquinoxalin-2(1H)-one] |
